Consider 121 compounds from a melting point compilation (Tetko et al.).

A value given as a limit tells only on which side of the number the result lay.

In general, melting point refers to the temperature of the solid-liquid transition. `Cc1ccc(-n2c(C)c[nH]c2=O)cc1` registered a melting point of 195 to 197 °C.

As to `Brc1ccc(NCc2cccnc2)cc1`, the melting point was 88 to 90 °C.

As to `Cc1csc(NC(=O)C2CCNCC2)n1`, the melting point fell in the range of 189 to 191 °C.

Regarding `CC1(c2c(F)cccc2F)CC1C(=O)O` (stereo unspecified), the melting point was in the range of 113 to 115 °C.

`OCc1ncc(-c2ccc(F)cc2)o1` gave a melting point of 81 to 83 °C.

For the compound `Cc1nc(Cl)c2cnn(-c3ccc(F)cc3)c2n1`, the melting point lay in the range of 114 to 116 °C.

The compound `Fc1ccc(-c2csc3ncnc(Cl)c23)cc1` registered a melting point of 139 to 141 °C.

Consider `CNC(=O)c1cccc(C#N)c1`, for which the melting point lay within 140 to 142 °C.

The compound `CC(Oc1ccc(-c2nc3ccccc3s2)cc1)C(=O)O` (stereo unspecified) had a melting point of 217 to 219 °C.

In turn, `COC(=O)c1ccncc1C(=O)OC` gave a melting point of 55 to 57 °C.

In turn, `CS(=O)(=O)Cc1ccc(S(=O)(=O)Cl)cc1` came in with a melting point of 127 to 129 °C.

In turn, `Cc1ccc(C(=O)Nc2cccc(C(F)(F)F)c2)cc1O` returned a melting point of 169 to 171 °C.

For the compound `Cc1oc(-n2cccc2)c(C#N)c1C(=O)O`, the melting point fell in the range of 208 to 210 °C.

As for `O=Cc1ccc(-c2ccc(C(=O)O)cc2)o1`, the melting point was in the range of 313 to 315 °C.

`O=C(O)c1c2c(nc3ccc(Br)cc13)CCCC2` showed a melting point of 291 to 293 °C.

The compound `Nc1cc(S(=O)(=O)Nc2ccccc2Cl)ccc1Cl` came in with a melting point of 89 to 93 °C.

On to `CNC(=O)c1cccc(C(=O)O)c1`, for which the melting point was 232 to 234 °C.

For the compound `NNc1ccc(S(N)(=O)=O)cn1`, the melting point fell in the range of 190 to 192 °C.

For the compound `Cc1cc(C(=O)O)nn1-c1ccc(F)cc1F`, the melting point was 221 to 223 °C.

For the compound `COc1cc(C=O)cc(Cl)c1O`, the melting point was 162 to 166 °C.

On to `O=C(O)c1ccc(-c2cccc(Cl)c2)s1`, for which the melting point is 222 to 224 °C.

As for `COC(=O)c1cc(N)cc([N+](=O)[O-])c1`, the melting point is 159 to 161 °C.

`CC(C)Oc1c(F)cc(N)cc1F` gave a melting point of 60 to 62 °C.

Regarding `Cc1cn(C2CC(O)C(CO)O2)c(=O)[nH]c1=O` (stereo unspecified), the melting point was 187 to 189 °C.

For the compound `Cc1cc(NC(=O)C(C)Cl)ccc1Br` (stereo unspecified), the melting point was in the range of 149 to 151 °C.

With `CNC(=O)c1cc(Oc2cc(N)ccc2C)ccn1`, the melting point was in the range of 141 to 143 °C.

`N#Cc1cn(-c2ccc(N)cc2)nc1N` showed a melting point of 195 to 197 °C.

The compound `CCNS(=O)(=O)c1ccccc1OC` returned a melting point of 84 to 86 °C.

In turn, `Cn1ccc(C(=O)O)c1` returned a melting point of 144 to 146 °C.

For `CCOC(=O)c1cc(F)ccc1S(=O)(=O)Cl`, the melting point fell in the range of 69 to 71 °C.

The compound `Cc1ccc(-c2csc(CC#N)n2)cc1` showed a melting point of 91 to 93 °C.

Compound `CSCCC(NS(=O)(=O)c1ccccc1F)C(=O)O` (stereo unspecified) registered a melting point of 104 to 106 °C.

As for `Cc1cc(C(=O)O)cc(S(=O)(=O)Cl)c1C`, the melting point was 171 to 173 °C.

In the case of `NNC(=O)C1Cc2ccccc2CN1Cc1ccccc1` (stereo unspecified), the melting point was 128 to 130 °C.

`O=C(O)CSCc1ccc(F)cc1` returned a melting point of 71 to 73 °C.

Compound `O=C(O)c1ccc2c(=O)n(-c3ccccc3)c(S)nc2c1` yielded a melting point of 368 to 370 °C.

`CNS(=O)(=O)C1CCNCC1` came in with a melting point of 168 to 170 °C.

`CCCC1CCc2nc(N)sc2C1` (stereo unspecified) showed a melting point of 78 to 80 °C.

In turn, `NC(C(=O)O)(c1cccc(Cl)c1)C(F)(F)F` (stereo unspecified) showed a melting point of 109 to 111 °C.

`O=C1CCC(=O)N1CCBr`: the melting point is 53 to 55 °C.

`COc1cc(Cl)ccc1S(=O)(=O)Cl`: the melting point is 89 to 91 °C.

`CC(=O)c1ccc(-c2ccc(Br)s2)cc1` displayed a melting point of 148 to 150 °C.

Compound `COc1ccc(C(=O)N2CCCC(C(=O)O)C2)c2ccccc12` (stereo unspecified) registered a melting point of 255 to 257 °C.

`Cc1cccc(S(=O)(=O)Cl)c1Br`: the melting point was 56 to 58 °C.

Compound `NCc1cc(Br)c[nH]1` registered a melting point of 105 to 107 °C.

Turning to `Sc1nc2ccccc2n1-c1ccccc1`, the melting point was in the range of 140 to 145 °C.

On to `Nc1nc2c(F)cc(F)cc2s1`, for which the melting point lay within 197 to 199 °C.

Consider `O=C(NCCCl)C1CCCC1`, for which the melting point lay in the range of 72 to 74 °C.

In the case of `O=C(O)CCc1ccsc1`, the melting point lay within 54 to 58 °C.

`CC(=O)Nc1ccc2c(c1)CN(C(=O)OC(C)(C)C)CC2`: the melting point lay within 110 to 112 °C.

As to `COCCn1ncc2ccc(N)cc21`, the melting point is 86 to 88 °C.

`Cc1cc(-c2nc3ccccc3n2C)c(=O)[nH]n1` returned a melting point of 334 to 336 °C.

For the compound `Cc1n[nH]c(C)c1S(=O)(=O)N(C)Cc1ccco1`, the melting point is 160 to 163 °C.

`NC1=C(c2nc3ccccc3[nH]2)C(=O)CN1N` yielded a melting point of 296 to 300 °C.

Turning to `O=Cc1cc(F)cc2cccnc12`, the melting point was in the range of 114 to 116 °C.

In turn, `O=C(O)C1CCN(C(=O)c2ccc3[nH]ncc3c2)CC1` showed a melting point of 246 to 248 °C.

As to `CSCc1nc2ccccc2n1CC(=O)O`, the melting point lay in the range of 221 to 225 °C.

`ClCc1nnc(-c2ccccc2Cl)o1` displayed a melting point of 91 to 93 °C.

`N#Cc1cccc([N+](=O)[O-])c1O` showed a melting point of 130 to 132 °C.

Regarding `Nc1ccccc1NC(=O)c1cccs1`, the melting point lay within 110 to 112 °C.

Consider `O=CC(Br)C=Nc1nccs1` (stereo unspecified), for which the melting point fell in the range of 137 to 139 °C.

`O=C(O)c1cc(N2CCNC2=O)c(F)cc1F` displayed a melting point of 246 to 248 °C.

`O=C(O)C1CCN(C(=O)c2ccco2)CC1` had a melting point of 127 to 129 °C.

Take `Cc1[nH]c2ccccc2c(=O)c1C(C)C`: the melting point lay in the range of 299 to 301 °C.

Compound `Cc1ccccc1COc1cccc(CC(=O)O)c1` yielded a melting point of 52 to 54 °C.

`Cc1cc(S(=O)(=O)Nc2ccccc2C(=O)O)ccc1F`: the melting point lay within 65 to 68 °C.

In turn, `O=C(O)C1CCN(CC(F)(F)F)CC1` showed a melting point of 62 to 64 °C.

`O=C(O)CNC(=O)c1cccc(F)c1`: the melting point is 153 to 155 °C.

As to `N#Cc1cc(Br)cc(S(N)(=O)=O)c1`, the melting point was 199 to 201 °C.

`O=C(NC1CCCCC1)c1cccnc1Cl`: the melting point is 132 to 134 °C.

For `CCCNc1c(N)n(Cc2ccccc2)c(=O)[nH]c1=O`, the melting point lay in the range of 210 to 212 °C.

`NC(=O)C1CCN(Cc2cccc(N)c2)CC1`: the melting point lay in the range of 139 to 141 °C.

As for `CC(O)Cc1ccccc1S(C)(=O)=O` (stereo unspecified), the melting point lay within 55 to 57 °C.

In turn, `Cc1cccc(-c2nc(CCl)no2)c1` displayed a melting point of 44 to 46 °C.

In turn, `CCOC(=O)c1ccc(N2CCNCC2)nc1` returned a melting point of 49 to 51 °C.

In turn, `COc1cccc(-n2cnnc2S)c1` returned a melting point of 167 to 169 °C.

Compound `Cn1cc(C#N)cn1` had a melting point of 59 to 61 °C.

For the compound `O=C1C=CC(=O)N1C1CC1`, the melting point fell in the range of 54 to 56 °C.

For the compound `Cc1ccc(OCc2cccc(C(=O)O)c2)cn1`, the melting point fell in the range of 166 to 168 °C.

As for `O=C(O)c1cccc(COc2cccc(F)c2)c1`, the melting point lay within 108 to 110 °C.

As to `Cc1ccc(S(=O)(=O)Cl)c(C)c1C(=O)O`, the melting point is 147 to 149 °C.

With `COc1ccc2c(c1)OCC(C#N)=C2`, the melting point was 93 to 95 °C.

For `COc1cc(CC#N)cc(Br)c1OCC(F)(F)F`, the melting point lay within 116 to 118 °C.

In the case of `CC(C)Cn1c(S)nnc1N1CCOCC1`, the melting point was below 17 °C.

`Nc1cc(-c2ccc(Br)o2)no1` gave a melting point of 144 to 146 °C.

`O=S(=O)(Cl)c1cc2ccc(Cl)nc2cc1F` gave a melting point of 128 to 130 °C.

The compound `N#Cc1ccc(C=O)c(F)c1` returned a melting point of 79 to 81 °C.

Regarding `O=C(O)C=C1CCSCC1`, the melting point was 56 to 58 °C.

For `COCCN1C(=O)c2ccc(C(=O)O)cc2S1(=O)=O`, the melting point lay in the range of 151 to 153 °C.

`CN(C)c1ccc(C2=CCNC2)cc1` returned a melting point of 99 to 101 °C.

For the compound `CC(=Cc1ccc(Br)o1)[N+](=O)[O-]`, the melting point fell in the range of 89 to 91 °C.

In the case of `COc1ccc(NC(=O)c2ccccc2N)cn1`, the melting point was 129 to 131 °C.

In turn, `CC(C)Cn1c(N)c(C=O)c(=O)n(C)c1=O` registered a melting point of 192 to 194 °C.

`CCc1cc2oc(=O)cc(CCl)c2cc1Cl` returned a melting point of 170 to 172 °C.

For the compound `COC(=O)N1CCCNC(=O)C1`, the melting point was in the range of 134 to 136 °C.

On to `Cc1c(C(=O)O)nnn1-c1cccc([N+](=O)[O-])c1`, for which the melting point lay within 169 to 171 °C.

Take `COCc1nnc(NN)s1`: the melting point was 109 to 111 °C.

Regarding `Nc1nc(-c2cccc([N+](=O)[O-])c2)cs1`, the melting point was 186 to 188 °C.

`Cc1ccc(NS(=O)(=O)c2c[nH]c(C(=O)O)c2)c(C)c1` registered a melting point of 218 to 220 °C.

With `CC(C)(C)NS(=O)(=O)c1ccc(N)nc1`, the melting point lay within 146 to 148 °C.

Turning to `N#Cc1cccnc1-n1cccn1`, the melting point is 114 to 116 °C.

`Cc1cnc(-c2cccc(C(=O)O)c2)s1` displayed a melting point of 210 to 212 °C.

`O=C(O)Cc1ccc(N2CCCC2=O)cc1` came in with a melting point of 120 to 122 °C.

In turn, `O=C(O)/C=C/c1cc(Cl)c2c(c1)OCCCO2` returned a melting point of 178 to 180 °C.

The compound `CC(=O)NC(C)(C)C(=O)O` gave a melting point of 190 to 192 °C.

`c1cc2c(s1)C1(CCNCC1)OCC2` came in with a melting point of 95 to 97 °C.

As for `O=C1CC2(CCCC2)C(=O)N1`, the melting point is 105 to 107 °C.

`Cc1nnc(NCC2CC2)c2ccccc12` had a melting point of 89 to 91 °C.

Regarding `Clc1ccc(C2CNCCO2)cc1` (stereo unspecified), the melting point is 55 to 57 °C.

The compound `Cc1nc(S)nc(O)c1CCO` came in with a melting point of 263 to 265 °C.

`Nc1ccccc1C(=O)Nc1ccc(F)cc1Cl` had a melting point of 103 to 105 °C.

On to `Cc1cc([N+](=O)[O-])cc(S(=O)(=O)Cl)c1F`, for which the melting point was in the range of 73 to 75 °C.

For `O=C(O)C1=Cc2cccc(O)c2OC1`, the melting point fell in the range of 233 to 235 °C.

`Cc1cc(N)ccc1N1CCCC1=O` showed a melting point of 159 to 161 °C.

With `Nc1ccc2c(ccn2CCN2CCOCC2)c1`, the melting point lay in the range of 102 to 104 °C.

Compound `CCOC(=O)Cc1c(C)nc(O)nc1C` registered a melting point of 135 to 137 °C.

Compound `Cn1c(=O)oc2cc(N)ccc21` registered a melting point of 150 to 152 °C.

Compound `O=C(CCl)NC1CCCC1` came in with a melting point of 73 to 75 °C.

`CC1=CSC(=C(C#N)N=O)N1` showed a melting point of 180 to 182 °C.

For the compound `CS(=O)(=O)c1ccc(N)c(N)c1`, the melting point lay in the range of 125 to 127 °C.

For `Sc1nnc(-c2ccccc2)c(-c2ccccc2)n1`, the melting point fell in the range of 222 to 224 °C.
